The text below walks through data of US5393738A (Sandoz, Ltd., priority 1986, dated 1995).

Data set [1] can be described thus: Stability of SMS in gastric juices. The format is in vitro ADME.
A short description of data set [2]: Biopharmaceutical properties of SMS: first pass effect and excretion. The following applies: rat. The format is in vivo.

Where two headings read alike, the source gives them in different places.

`C[C@@H](O)[C@@H]1NC(=O)[C@H](CCCCN)NC(=O)[C@@H](Cc2c[nH]c3ccccc23)NC(=O)[C@H](Cc2ccccc2)NC(=O)[C@@H](NC(=O)[C@H](N)Cc2ccccc2)CSSC[C@@H](C(=O)N[C@H](CO)[C@@H](C)O)NC1=O` [SMS, octreotide]: the “stability in gastric juices” value in data set [1] is “extremely stable”. Also, the dose excreted was approximately 80% in data set [2] (bile, read-out: excreted as the unchanged drug in the bile) and approximately 20% in data set [2] (urine, read-out: excreted as the unchanged drug in the urine).
